From the supplement of paper PMC11424490 come the findings set out here.

What all share (assay): combination cScore with adagrasib (Bliss gap around IC50) (%PoC); higher = stronger additive effect
The subject of one experiment is NCI-H2122. Summed up: (§1)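 After 24 h in 384-well plates (500 or 800 cells per well), NCI-H2122, NCI-H358 and SW837 cells received concentration matrices and grew for 72 h, except SW837, which grew for 144 h. CellTiter-Glo readings were scaled to vehicle wells and fitted with four-parameter curves. Each score is the averaged Bliss-independence difference (expected minus measured viability) over a region around both monotherapy IC50s, or at top concentrations when no IC50 was reached.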

The test system of another experiment is NCI-H358. Summed up: as §1
Another experiment deals with SW837. The procedure, abridged: as §1

The structures appear in SMILES notation.

For the compound `CC(C)N(CCCNC(=O)Nc1ccc(C(C)(C)C)cc1)C[C@H]1O[C@@H](n2ccc3c(N)ncnc32)[C@H](O)[C@@H]1O` + C=C(F)C(=O)N1CCN(c2nc(OC[C@@H]3CCCN3C)nc3c2CCN(c2cccc4cccc(Cl)c24)C3)C[C@@H]1CC#N [adagrasib], the “combination cScore with adagrasib” value in the experiment with NCI-H2122 turned out to be 19.1; in the experiment with NCI-H358 it was 9.87; in the experiment on SW837, 2.74.
On the same counts, the results for `C[C@@H]1CN(CC(=O)Nc2ccc3c(c2)Cc2cccc(-c4cc(=O)cc(N5CCOCC5)o4)c2S3)C[C@H](C)O1` + C=C(F)C(=O)N1CCN(c2nc(OC[C@@H]3CCCN3C)nc3c2CCN(c2cccc4cccc(Cl)c24)C3)C[C@@H]1CC#N [adagrasib] are 18.9, 6.62 and 3.63.
Turning to `Cc1nc(Nc2n[nH]c3c2CN(C(=O)N[C@H](CN(C)C)c2ccccc2)C3(C)C)c2sccc2n1` + C=C(F)C(=O)N1CCN(c2nc(OC[C@@H]3CCCN3C)nc3c2CCN(c2cccc4cccc(Cl)c24)C3)C[C@@H]1CC#N [adagrasib], the figures for the “combination cScore with adagrasib” value in the experiment on NCI-H2122, in the experiment on NCI-H358 and in the experiment with SW837 were 8.47, -5.91 and -0.72, respectively.
Consider `C[C@H](NC(=O)c1c(N)nn2cccnc12)c1cc2cccc(C#Cc3cnn(C)c3)c2c(=O)n1-c1ccccc1` [IPI-549] + C=C(F)C(=O)N1CCN(c2nc(OC[C@@H]3CCCN3C)nc3c2CCN(c2cccc4cccc(Cl)c24)C3)C[C@@H]1CC#N [adagrasib], for which the “combination cScore with adagrasib” value in the experiment on NCI-H2122 was 13; with NCI-H358, -0.57; in the experiment with SW837 it was 5.62.
In the case of `C[C@H](Nc1ccc2c(c1)OCCn1cc(N3C(=O)OC[C@H]3C(F)F)nc1-2)C(N)=O` [GDC-0077] + C=C(F)C(=O)N1CCN(c2nc(OC[C@@H]3CCCN3C)nc3c2CCN(c2cccc4cccc(Cl)c24)C3)C[C@@H]1CC#N [adagrasib], the “combination cScore with adagrasib” value is 22.2 with NCI-H2122, 5.51 in the experiment on NCI-H358 and 5.13 with SW837.
On to `O=P1(N(CCCl)CCCl)NCCCO1` (centres undefined) [Cyclophosphamide] + C=C(F)C(=O)N1CCN(c2nc(OC[C@@H]3CCCN3C)nc3c2CCN(c2cccc4cccc(Cl)c24)C3)C[C@@H]1CC#N [adagrasib], for which the “combination cScore with adagrasib” value in the experiment on NCI-H2122 was -0.77; in the experiment on NCI-H358, -0.63; in the experiment on SW837, -0.5.
On to `CCN1CCN(Cc2ccc(Nc3ncc(F)c(-c4cc(F)c5nc(C)n(C(C)C)c5c4)n3)nc2)CC1` [Abemaciclib] + C=C(F)C(=O)N1CCN(c2nc(OC[C@@H]3CCCN3C)nc3c2CCN(c2cccc4cccc(Cl)c24)C3)C[C@@H]1CC#N [adagrasib], for which the “combination cScore with adagrasib” value in the experiment on NCI-H2122 was 5.55; in the experiment with NCI-H358, 4.46; in the experiment with SW837, 12.5.
As for `Cc1c(Cn2c(C)nc3c(C(=O)O)cc(N4CCOCC4)cc32)cccc1C(F)(F)F` + C=C(F)C(=O)N1CCN(c2nc(OC[C@@H]3CCCN3C)nc3c2CCN(c2cccc4cccc(Cl)c24)C3)C[C@@H]1CC#N [adagrasib], the entries for the “combination cScore with adagrasib” value in the experiment on NCI-H2122, in the experiment with NCI-H358 and in the experiment on SW837 were 8.98, -4.04 and -1.49, respectively.
With `Cc1c(-c2c(-c3ccc(F)o3)sc3ncnc(O[C@H](Cc4ccccc4OCc4ccnn4CC(F)(F)F)C(=O)O)c23)ccc(OCCN2CCN(C)CC2)c1Cl` + C=C(F)C(=O)N1CCN(c2nc(OC[C@@H]3CCCN3C)nc3c2CCN(c2cccc4cccc(Cl)c24)C3)C[C@@H]1CC#N [adagrasib], the “combination cScore with adagrasib” value in the experiment with NCI-H2122 came to 8.13; in the experiment on NCI-H358 it was 5.46; in the experiment with SW837, 4.73.
Consider `Nc1cc(C(F)(F)F)c(-c2cc(N3CCOCC3)nc(N3CCOCC3)n2)cn1` [BKM120] + C=C(F)C(=O)N1CCN(c2nc(OC[C@@H]3CCCN3C)nc3c2CCN(c2cccc4cccc(Cl)c24)C3)C[C@@H]1CC#N [adagrasib], for which the “combination cScore with adagrasib” value in the experiment with NCI-H2122 was determined as 12.9; with NCI-H358, 2.43; with SW837 it was 9.24.
For the compound `COC(=O)[C@]12CCC(C)(C)C[C@H]1[C@H]1C(=O)C=C3[C@@]4(C)C=C(C#N)C(=O)C(C)(C)[C@@H]4CC[C@@]3(C)[C@]1(C)CC2` [Bardoxolone methyl] + C=C(F)C(=O)N1CCN(c2nc(OC[C@@H]3CCCN3C)nc3c2CCN(c2cccc4cccc(Cl)c24)C3)C[C@@H]1CC#N [adagrasib], the “combination cScore with adagrasib” value in the experiment with NCI-H2122 was 5.12; in the experiment with NCI-H358, -4.25; in the experiment on SW837, 0.43.
For `COc1cc2ncnc(Nc3ccc(F)c(Cl)c3)c2cc1OCCCN1CCOCC1` [Gefitinib] + C=C(F)C(=O)N1CCN(c2nc(OC[C@@H]3CCCN3C)nc3c2CCN(c2cccc4cccc(Cl)c24)C3)C[C@@H]1CC#N [adagrasib], the “combination cScore with adagrasib” value came to 15.8 in the experiment on NCI-H2122, 12.5 in the experiment with NCI-H358 and 23.8 in the experiment with SW837.
`O=C(C1CC1)N1CC[C@@H](Cn2c(-c3ccc(-c4ccc5occc5c4)cc3)nc3cnccc32)C1` + C=C(F)C(=O)N1CCN(c2nc(OC[C@@H]3CCCN3C)nc3c2CCN(c2cccc4cccc(Cl)c24)C3)C[C@@H]1CC#N [adagrasib]: the “combination cScore with adagrasib” value with NCI-H2122 came out at 7.98; in the experiment with NCI-H358, 7.72; with SW837, 7.68.
Regarding `CCc1c2c(nc3ccc(O)cc13)-c1cc3c(c(=O)n1C2)COC(=O)[C@]3(O)CC` [SN-38] + C=C(F)C(=O)N1CCN(c2nc(OC[C@@H]3CCCN3C)nc3c2CCN(c2cccc4cccc(Cl)c24)C3)C[C@@H]1CC#N [adagrasib], the “combination cScore with adagrasib” value in the experiment on NCI-H2122 was 6.93; with NCI-H358, -1.51; with SW837, -1.14.
With `Cc1nc(Nc2ncc(C(=O)Nc3c(C)cccc3Cl)s2)cc(N2CCN(CCO)CC2)n1` [Dasatinib] + C=C(F)C(=O)N1CCN(c2nc(OC[C@@H]3CCCN3C)nc3c2CCN(c2cccc4cccc(Cl)c24)C3)C[C@@H]1CC#N [adagrasib], the “combination cScore with adagrasib” value in the experiment with NCI-H2122 is 42; with NCI-H358 it was 8.94; in the experiment on SW837, 14.7.
Take `NC1(c2ccc(-c3nc4ccn5c(=O)[nH]nc5c4cc3-c3ccccc3)cc2)CCC1` [MK-2206] + C=C(F)C(=O)N1CCN(c2nc(OC[C@@H]3CCCN3C)nc3c2CCN(c2cccc4cccc(Cl)c24)C3)C[C@@H]1CC#N [adagrasib]: the “combination cScore with adagrasib” value turned out to be 8 with NCI-H2122, 6.39 in the experiment on NCI-H358 and 12.2 with SW837.
For the compound `CCc1nc(N)nc(N)c1-c1ccc(Cl)cc1` [Pyrimethamine] + C=C(F)C(=O)N1CCN(c2nc(OC[C@@H]3CCCN3C)nc3c2CCN(c2cccc4cccc(Cl)c24)C3)C[C@@H]1CC#N [adagrasib], the results for the “combination cScore with adagrasib” value with NCI-H2122, in the experiment with NCI-H358 and in the experiment with SW837 were 15.2, -2.05 and -3.37, respectively.
Consider `COc1cc(N2CCC(N3CCN(C)CC3)CC2)ccc1Nc1ncc(Cl)c(Nc2ccccc2S(=O)(=O)C(C)C)n1` [NVP-TAE684] + C=C(F)C(=O)N1CCN(c2nc(OC[C@@H]3CCCN3C)nc3c2CCN(c2cccc4cccc(Cl)c24)C3)C[C@@H]1CC#N [adagrasib], for which the “combination cScore with adagrasib” value in the experiment with NCI-H2122 was determined as 12.8; with NCI-H358, 3.66; in the experiment with SW837 it was 23.6.
